Measurements: the NIST ThermoML archive (doi:10.1007/s10765-007-0223-x)

What was measured:
[1] = 101 kPa, Liquid; for speed of sound: Single path-length method
[2] = xn = mol fraction of the nth substance listed; details: 101 kPa, Liquid, x2 = 0; for speed of sound: Single path-length method

CC(C)(C)O [2-methylpropan-2-ol]
[1]
Details | mass density [kg/m3] | speed of sound [m/s]
301.65 K | 777.762 | 1109
303.15 K | 775.212 | 1099
305.65 K | 772.623 | 1088.3
308.15 K | 770.015 | 1077.7
310.65 K | 767.391 | 1067.2
313.15 K | 764.739 | 1056.7
315.65 K | 762.054 | 1046.1
318.15 K | 759.355 | 1035.7
320.65 K | 756.633 | 1025.2
323.15 K | 753.891 | 1014.8

Cc1ccccc1 [toluene]
[1]
Details | mass density [kg/m3] | speed of sound [m/s]
288.15 K | 871.457 | 1347.5
290.65 K | 869.144 | 1336.3
293.15 K | 866.823 | 1325.3
295.65 K | 864.5 | 1314.3
298.15 K | 862.173 | 1303.4
300.65 K | 859.845 | 1292.6
303.15 K | 857.513 | 1281.9
305.65 K | 855.175 | 1271.2
308.15 K | 852.838 | 1260.5
310.65 K | 850.494 | 1249.8
313.15 K | 848.146 | 1239.2
315.65 K | 845.794 | 1228.6
318.15 K | 843.437 | 1218
320.65 K | 841.075 | 1207.3
323.15 K | 838.706 | 1196.6

c1ccccc1 [benzene]
[1]
Details | mass density [kg/m3] | speed of sound [m/s]
288.15 K | 884.183 | 1345.5
290.65 K | 881.521 | 1333.4
293.15 K | 878.856 | 1321.6
295.65 K | 876.19 | 1309.9
298.15 K | 873.52 | 1298.3
300.65 K | 870.847 | 1286.7
303.15 K | 868.172 | 1275.1
305.65 K | 865.49 | 1263.6
308.15 K | 862.805 | 1252.1
310.65 K | 860.118 | 1240.7
313.15 K | 857.425 | 1229.3
315.65 K | 854.73 | 1217.9
318.15 K | 852.032 | 1206.7
320.65 K | 849.331 | 1195.5
323.15 K | 846.641 | 1184.6

Cc1ccccc1 [toluene] + COC(C)(C)C
[2]
Details | mass density [kg/m3] | speed of sound [m/s]
288.15 K | 871.457 | 1347.5
290.65 K | 869.144 | 1336.3
293.15 K | 866.823 | 1325.3
295.65 K | 864.5 | 1314.3
298.15 K | 862.173 | 1303.4
300.65 K | 859.845 | 1292.6
303.15 K | 857.513 | 1281.9
305.65 K | 855.175 | 1271.2
308.15 K | 852.838 | 1260.5
310.65 K | 850.494 | 1249.8
313.15 K | 848.146 | 1239.2
315.65 K | 845.794 | 1228.6
318.15 K | 843.437 | 1218
320.65 K | 841.075 | 1207.3
323.15 K | 838.706 | 1196.6

CCc1ccccc1 [ethylbenzene]
[1]
Details | mass density [kg/m3] | speed of sound [m/s]
288.15 K | 871.245 | 1360.7
290.65 K | 869.052 | 1349.9
293.15 K | 866.856 | 1339.4
295.65 K | 864.66 | 1328.9
298.15 K | 862.459 | 1318.4
300.65 K | 860.256 | 1307.9
303.15 K | 858.047 | 1297.5
305.65 K | 855.837 | 1287.1
308.15 K | 853.622 | 1276.8
310.65 K | 851.407 | 1266.5
313.15 K | 849.186 | 1256.3
315.65 K | 846.964 | 1246.1
318.15 K | 844.741 | 1236.1
320.65 K | 842.518 | 1226.1
323.15 K | 840.306 | 1216.3

CC(C)(C)O [2-methylpropan-2-ol] + COC(C)(C)C
[2]
Details | mass density [kg/m3] | speed of sound [m/s]
301.65 K | 777.762 | 1109
303.15 K | 775.212 | 1099
305.65 K | 772.623 | 1088.3
308.15 K | 770.015 | 1077.7
310.65 K | 767.391 | 1067.2
313.15 K | 764.739 | 1056.7
315.65 K | 762.054 | 1046.1
318.15 K | 759.355 | 1035.7
320.65 K | 756.633 | 1025.2
323.15 K | 753.891 | 1014.8
